According to patent US8912121B2, “Herbicidal compositions comprising 4-amino-3-chloro-5-fluoro-6-(4-chloro-2-fluoro-3-methoxyphenyl)pyridine-2-carboxylic acid or a derivative thereof and certain PS II inhibitors” (Dow Agrosciences LLC, priority 2012, dated 2014):

How the values were obtained:
[1] = system: SASKR (Salsola tragus, Russian thistle); assay: Postemergence herbicidal activity of mixtures in cereal crops, greenhouse; type: in vivo, Salsola tragus L.
Experimental: (§1) Seeds of the desired test plant species were planted in Sun Gro MetroMix® 306 planting mixture, which typically has a pH of 6.0 to 6.8 and an organic matter content of about 30 percent, in plastic pots with a surface area of 103.2 square centimeters (cm^2). When required to ensure good germination and healthy plants, a fungicide treatment and/or other chemical or physical treatment was applied. The plants were grown for 7-36 days in a greenhouse with an approximate 14 hour photoperiod which was maintained at about 18° C. during the day and about 17° C. during the night. Nutrients and water were added on a regular basis and supplemental lighting was provided with overhead metal halide 1000-Watt lamps as necessary. The plants were employed for testing when they reached the second or third true leaf stage.
(§2) Treatments consisted of the benzyl ester of 4-amino-3-chloro-5-fluoro-6-(4-chloro-2-fluoro-3-methoxy-phenyl)pyridine-2-carboxylic acid (Compound A), formulated as an SC, a second cereal herbicide alone and then both in combination.
(§3) Other herbicidal components were applied on an active ingredient basis and included PSII-inhibiting herbicides.
(§4) Measured aliquots of benzyl ester of 4-amino-3-chloro-5-fluoro-6-(4-chloro-2-fluoro-3-methoxy-phenyl)pyridine-2-carboxylic acid (Compound A) were placed in 25 milliliter (mL) glass vials and diluted in a volume of 1.25% (v/v) Agri-Dex® crop oil concentrate to obtain stock solutions. Compound requirements are based upon a 12 mL application volume at a rate of 187 liters per hectare (L/ha). Spray solutions of the second cereal herbicide and experimental compound mixtures were prepared by adding the stock solutions to the appropriate amount of dilution solution to form 12 mL spray solution with active ingredients in two- and three-way combinations. Formulated compounds were applied to the plant material with an overhead Mandel track sprayer equipped with an 8002E nozzle calibrated to deliver 187 L/ha over an application area of 0.503 square meters (m^2) at a spray height of 18 inches (46 cm) above average plant canopy. Control plants were sprayed in the same manner with the solvent blank.
(§5) The treated plants and control plants were placed in a greenhouse as described above and watered by sub-irrigation to prevent wash-off of the test compounds. After 20-22 days, the condition of the test plants as compared with that of the control plants was determined visually and scored on a scale of 0 to 100 percent where 0 corresponds to no injury and 100 corresponds to complete kill.
(§6) Colby's equation was used to determine the herbicidal effects expected from the mixtures (Colby, S. R. 1967. Calculation of the synergistic and antagonistic response of herbicide combinations. Weeds 15:20-22).
(§7) The following equation was used to calculate the expected activity of mixtures containing two active ingredients, A and B: Expected=A+B−(A×B/100)

[2] = system: VERPE (Veronica persica, Persian speedwell); assay: as above; type: in vivo, Veronica persica Poir.
Experimental: as §1, §2, §3, §4, §5, §6, §7

[3] = system: ABUTH (Abutilon theophrasti, velvetleaf); assay: Pre-emergence soil-applied mixtures, greenhouse; type: in vivo, Abutilon theophrasti Medik.
From the text: (§8) Seeds or nutlets of the desired test plant species were planted in a soil matrix prepared by mixing a loam soil (32 percent silt, 23 percent clay, and 45 percent sand, with a pH of about 6.5 and an organic matter content of about 1.9 percent) and calcareous grit in an 80 to 20 ratio. The soil matrix was contained in plastic pots with a volume of 1 quart and a surface area of 83.6 square centimeters (cm^2).
(§9) Treatments consisted of the benzyl ester of 4-amino-3-chloro-5-fluoro-6-(4-chloro-2-fluoro-3-methoxy-phenyl)pyridine-2-carboxylic acid (compound A) formulated as an SC (suspension concentrate) and various herbicidal components alone and in combination. Forms of compound A were applied on an acid equivalent basis.
(§10) Other herbicidal components were applied on an acid equivalent or active ingredient basis and included the PSII-inhibiting herbicides, atrazine formulated as Atrazine® 90WDG, metribuzin formulated as Metribuzin 75DF, simazine formulated as Princep Caliber 90, tebuthiuron formulated as Spike 80DF, cyanazine (technical grade material), hexazinone (technical grade material), linuron (technical grade material), terbuthylazine (technical grade material), and diuron formulated as Diuron 4L.
(§11) Treatment requirements were calculated based upon the rates being tested, the concentration of active ingredient or acid equivalent in the formulation, and a 12 mL application volume at a rate of 187 L/ha.
For treatments comprised of formulated compounds, measured amounts of compounds were placed individually in 25 mL glass vials and diluted in a volume of 1.25% (v/v) Agri-Dex® crop oil concentrate (COC) to obtain 12× stock solutions. […] Application solutions were prepared by adding an appropriate amount of each stock solution (e.g., 1 mL) and diluted to the appropriate final concentrations with the addition of 10 mL of an aqueous mixture of 1.25% (v/v) COC so that the final spray solutions contained 1.25% (v/v) COC.
For treatments comprised of technical compounds, weighed amounts can be placed individually in 25 mL glass vials and dissolved in a volume of 97:3 (v/v) acetone/DMSO to obtain 12× stock solutions. […] Application solutions can be prepared by adding an appropriate amount of each stock solution (e.g., 1 mL) and diluted to the appropriate final concentrations with the addition of 10 mL of an aqueous mixture of 1.5% (v/v) COC so that the final spray solutions contain 1.25% (v/v) COC. When technical materials are used, the concentrated stock solutions can be added to the spray solutions so that the final acetone and DMSO concentrations of the application solutions are 16.2% and 0.5%, respectively.
For treatments comprised of formulated and technical compounds, weighed amounts of the technical materials can be placed individually in 25 mL glass vials and dissolved in a volume of 97:3 (v/v) acetone/DMSO to obtain 12× stock solutions, and measured amounts of the formulated compounds can be placed individually in 25 mL glass vials and diluted in a volume of 1.5% (v/v) COC or water to obtain 12× stock solutions. […] Application solutions can be prepared by adding an appropriate amount of each stock solution (e.g., 1 mL) and diluted to the appropriate final concentrations with the addition of an appropriate amount of an aqueous mixture of 1.5% (v/v) COC so that the final spray solutions contain 1.25% (v/v) COC. […]

[4] = system: SETVI (Setaria viridis, green foxtail); assay: Pre-emergence soil-applied mixtures, greenhouse; type: in vivo, Setaria viridis (L.) Beauv.
From the text: as §8, §9, §10, §11
For treatments comprised of formulated compounds, measured amounts of compounds were placed individually in 25 mL glass vials and diluted in a volume of 1.25% (v/v) Agri-Dex® crop oil concentrate (COC) to obtain 12× stock solutions. […]
For treatments comprised of formulated and technical compounds, weighed amounts of the technical materials can be placed individually in 25 mL glass vials and dissolved in a volume of 97:3 (v/v) acetone/DMSO to obtain 12× stock solutions, and measured amounts of the formulated compounds can be placed individually in 25 mL glass vials and diluted in a volume of 1.5% (v/v) COC or water to obtain 12× stock solutions. […]

[5] = Compound A Benzyl Ester 5 g ai/ha
[6] = Compound A Benzyl Ester 10 g ai/ha
[7] = Compound A Benzyl Ester 16 g ae/ha
[8] = Compound A Benzyl Ester 32 g ae/ha

For `COc1c(Cl)ccc(-c2nc(C(=O)OCc3ccccc3)c(Cl)c(N)c2F)c1F` [Compound A Benzyl Ester, benzyl ester of 4-amino-3-chloro-5-fluoro-6-(4-chloro-2-fluoro-3-methoxy-phenyl)pyridine-2-carboxylic acid], the “Visual Weed Control (%)-21 DAA SASKR Obs” value ([1]; Compound A Benzyl Ester 2.5 g ai/ha) was 15%, the “Visual Weed Control (%)-21 DAA SASKR Obs” value [1, 5] was 50% and the “Visual Weed Control (%)-21 DAA SASKR Obs” value [1, 6] was 67%. The “Visual Weed Control (%) - 21 DAA VERPE Obs” value [2, 5] was 17%, the “Visual Weed Control (%) - 21 DAA VERPE Obs” value [2, 6] was 23% and the “Visual Weed Control (%)-29 DAA ABUTH Obs” value [3, 7] was 65%. For the same compound, the “Visual Weed Control (%)-29 DAA ABUTH Obs” value [3, 8] was 93%, the “Visual Weed Control (%)-29 DAA SETVI Obs” value [4, 7] was 10% and the “Visual Weed Control (%)-29 DAA SETVI Obs” value [4, 8] was 10%.
